Test results reported in patent US20070191287A1, “D-ribose for improving depression-like symptoms” (priority 2004, published 2007).

What was measured:
mice = test: forced swimming test in mice; format: in vivo, mice (ddY-strain)
Protocol: Male 10 ddY-strain mice (5 weeks old, purchased from Japan SLC, Inc.) were used for each group as test animals. The animals were housed in groups of 20 mice in a plastic-made cage (26×43×16 cm; Clea Japan Inc.), and they were kept in the animal room maintained at 23±2° C. with 30 to 80% humidity, and illuminated for 12 hr (6:30 to 18:30). The animals were allowed free access to pellet diets (CRF-1, Oriental Yeast, Co., Ltd.), and tap water.
The experiment was carried out on the four groups, such as the groups treated with D-ribose at doses of 30 mg/kg, 100 mg/kg, 300 mg/kg, and the control group. The animals were grouped based on the body weights which had been previously measured prior to the experiment so that the average body weight of each group becomes equal. D-ribose was dissolved in distilled water and administered orally at 10 ml/kg once a day and repeatedly for one week in mice. To the control group, distilled water was administered orally instead of aqueous D-ribose solution. […] Briefly, the animals were forced to swim twice, i.e., for 15 minutes prior to the treatment of a test compound or distilled water on the day before the final administration, and further for 5 minutes one hour after the final administration on the following day. That is, the mice were forced to swim in a clear polycarbonate-made measuring cylinder (internal diameter: 10 cm, height: 25 cm) containing water up to a height of 10 cm at a temperature of 250° C., and the duration of the immobility during the second swimming was recorded.
The results were expressed as mean±standard error for each group. The significant differences between the groups were studied by Dunnett's multiple comparison test with a significance level of 5%.
Male10 ddY-strain male mice (5 weeks old, purchased from Japan SLC, Inc.) were used for each group as test animals. The animals were kept under the same conditions as in Example 1. The experiment was carried out on the four groups, such as the groups treated with D-ribose 100 mg/kg, potassium magnesium aspartate (Mg.K aspartate) 50 mg/kg, and D-ribose 100 mg/kg+Mg.K aspartate 50 mg/kg, and the control group. The animals were grouped based on the body weights which had been previously measured prior to the experiment so that the average body weight of each group becomes equal. D-ribose and potassium magnesium aspartate were dissolved in distilled water and administered orally at 10 ml/kg once a day and repeatedly for one week. […]
Male 10 ddY-strain mice (5 weeks old, purchased from Japan SLC, Inc.) were used for each group as test animals. The animals were grouped based on the body weights which had been previously measured prior to the experiment so that the average body weight of each group becomes equal. […]

[1] = test system: reserpine-induced hypothermia; test: reserpine-induced hypothermia competitive test; format: in vivo, mice (ddY-strain)
Protocol: Male 8 ddY-strain mice (5 weeks old, purchased from Japan SLC, Inc.) were used for each group as test animals. The animals were kept under the same conditions as in Example 1. The experiment was carried out on the four groups such as the groups treated with D-ribose at doses of 30 mg/kg, 100 mg/kg, 300 mg/kg, and the control group. The animals were grouped based on the body temperature (rectal temperature) which had been previously measured prior to the experiment so that the average body temperature of each group becomes equal. D-ribose was dissolved in distilled water and administered orally at 10 ml/kg once a day and repeatedly for one week. To the control group, distilled water was administered orally instead of aqueous D-ribose solution. The reserpine-induced hypothermia competitive test was a modification of the method of Wachtel (cf., Neuropharmacology, 22 (3), p. 267-272 (1983)). Namely, a solution of reserpine (Daiichi Pharmaceutical Co. Ltd.) in an aqueous propylene glycol solution was subcutaneously administered to the mice in each group at a dose of 1 mg/kg (i.e., in an amount of 10 ml/kg) just before administration of a test compound or distilled water, and subsequently, D-ribose or distilled water were administered orally to the mice, and then the rectal temperature of each mouse was measured on 1, 2, 4, 6 and 8 hours after administration of D-ribose or distilled water. In the experiment, the reserpine treatment and the administration of the test compound were carried out during from 10:00 AM to 11:00 AM. The results were expressed as mean±standard error in each group. The significant differences between the groups were studied by Bonferroni/Dun multiple comparison test with a significance level of 5%. Male 8 ddY-strain mice (5 weeks old, purchased from Japan SLC, Inc.) were used for each group as test animals. The animals were kept under the same conditions as in Example 1. […] To the control group, distilled water was administered orally. The grouping, the administration of reserpine and the measurement of body temperature were carried out in the same manner as in Example 3. The results were expressed as mean±standard error for each group. The significant differences between the groups were studied by Bonferroni/Dunn multiple comparison test with a significance level of 5%.

human = test: evaluation of effect of maintaining concentration in human (random number table test); format: in vivo; conditions: healthy volunteers; D-ribose 2.2 g/day for 7 days, crossover vs dextrin control
Excerpt: The effect of maintaining concentration by D-ribose in human can be evaluated by the test using a random number table (cf., Sports Mental Training for Winning Games, written by Yoshihide TAKAHATA, published by NATSUME CO, LTD., 2003).
Twenty healthy volunteers are grouped into two groups, i.e., the D-ribose 2.2 g/day-treated group, and the control group. The volunteers in the D-ribose 2.2 g/day-treated group take an aqueous solution of D-ribose (2.2 g), a roasted green tea extra (0.24 g) and sucralose (2 mg) in distilled water for injection per day. The volunteers in the control group take an aqueous solution of dextrin (2.2 g), a roasted green tea extra (0.24 g) and sucralose (2 mg) in distilled water per day. […]
The evaluation test for concentration power is carried out as follows. […] Then, the number of marked cells is compared between both groups and the concentration power is evaluated therefrom.
Further, after one-month washout period from the above evaluation test for concentration power, the volunteers in both groups are exchanged each other, and then the same test is carried out again on the volunteers. Combining the results of these two tests, the effect of maintaining concentration by D-ribose is comprehensively evaluated.

rats = test: soaking fatigue test in rats; format: in vivo, rats (SD-strain); conditions: orally twice a day divided, 5 days
Protocol: Male 10 SD-strain rats (7 weeks old, purchased from Japan SLC, Inc.) were used for each group as test animals. The animals were grouped based on the body weights which had been previously measured prior to the experiment so that the average body weight of each group becomes equal. The animals were kept under the same conditions as in Example 1. The experiment was carried out on the 3 groups, such as the groups treated with D-ribose at doses of 300 mg/kg, 1000 mg/kg, and the control group. To the D-ribose-treated groups, D-ribose was dissolved in distilled water for injection in a predetermined amount for each body weight, and the resulting aqueous solution was mandatorily administered orally to the rats at a dose of 10 ml/kg. To the control group, distilled water for injection was mandatorily administered orally instead of aqueous D-ribose solution at a dose of 10 ml/kg.
The soaking fatigue test in rats was carried out by a modification of the method of Tanaka (cf., Igaku-no-Ayumi, 204 (5), 362-364 (2003)). Briefly, the rats in each group were kept in a cage where water at 23±1° C. was filled at a water depth of about 1.5 cm for 5 days, during which D-ribose was orally administered to the rats twice a day at 10 A.M. and 3 P.M. with divided amount of the daily dose (300 mg/kg or 1000 mg/kg), i.e., at each time 150 mg/kg or 500 mg/kg, respectively, for 5 days in a row. Twenty-four hours after the last administration, the rats were loaded with a weight (about 20 g, about 8°% of the body weight) at a position of about ⅘ distant from the root. Each rat was forced to swim individually in a clear acrylic cylindrical water bath (inner diameter: 25 cm, height: 60 cm) containing warm water (25±2° C., water-depth: 50 cm). The time from the beginning of swimming until the nose of the rat sank down into the water for more than 10 seconds was measured.
The results were expressed as mean±standard error for each group. The significant differences between the groups were studied by Bonferroni/Dun multiple comparison test with a significance level of 5%.

| SMILES | duration of immobility (mice; Example 2, Mg.K aspartate 50 mg/kg alone, orally once a day for one week) | duration of immobility (mice; Comparative Example 1, D-ribose 100 mg/kg and 300 mg/kg orally for one week) | duration of immobility (mice; Example 1, 300 mg/kg orally once a day for one week, vs control group) | duration of immobility (mice; Example 2, D-ribose 100 mg/kg alone, orally once a day for one week) | reserpine-induced hypothermia (rectal temperature) ([1]; Example 3, 30 mg/kg orally once a day for one week, reserpine 1 mg/kg s.c.) | reserpine-induced hypothermia (rectal temperature) ([1]; Example 3, 100 mg/kg orally once a day for one week, 4 or 6 hours after administration) | reserpine-induced hypothermia (rectal temperature) ([1]; Example 3, 300 mg/kg orally once a day for one week, 4 or 6 hours after administration) | reserpine-induced hypothermia (rectal temperature) ([1]; Example 4, D-ribose alone 100 mg/kg orally, at 4 and 6 hours after treatment) | concentration power (number of marked cells) (human) | anti-fatigue effect (duration of swimming) (rats; 300 mg/kg daily dose, swim 24 h after last administration) | anti-fatigue effect (duration of swimming) (rats; 1000 mg/kg daily dose, stress-related fatigue caused by breeding under soaking) | duration of swimming longer than that in the control group (rats; 1000 mg/kg daily dose, swim 24 h after last administration) |
| --- | --- | --- | --- | --- | --- | --- | --- | --- | --- | --- | --- | --- |
| N[C@@H](CC(=O)O)C(=O)O.[K+].[Mg+2] [Mg.K aspartate, potassium magnesium aspartate] | not significantly reduced | – | – | – | – | – | – | – | – | – | – | – |
| O=C[C@H](O)[C@H](O)[C@H](O)CO [D-ribose] | – | dose-depending reduction | significantly reduced | not significantly reduced | not significantly alleviated | significantly and nearly dose-relatively alleviated | significantly and nearly dose-relatively alleviated | significantly alleviated | dominantly maintained | any significant anti-fatigue effect was observed | significant anti-fatigue effect | about 70% |
